The results in this text go back to patent publication US6316409A, “Modified ligands of calcium-dependent binding proteins” (Medical Research Council, priority 1996, dated 2001).

SMILES strings stand for the structures. Peptide text beside a SMILES is read from it.

Test [1] addresses T1, bovine brain calmodulin (Bos taurus, UniProt P62157).
T1 construct: Complexes between calmodulin from bovine brain (1 μM, Sigma); purchased Sigma; host or cells: bovine brain (tissue-derived)
The experiment in a line: BIAcore surface plasmon resonance, kon and koff of calmodulin binding to biotinylated peptides. As to conditions: for increase in kon with respect to the wild-type peptide 1 / koff / kon: BIAcore; for koff: read-out: koff (s^-1)^B; for kon: read-out: kon (s^-1 M^-1)^B. The source says:
(§1) For a kinetic and thermodynamic characterisation of the binding of the peptides of the present invention to bovine brain calmodulin, we have measured the kinetic isomerisation, association, and dissociation constants from which dissociation constants can be derived.
koff =k-1·k-2 /(k+2 +k-2)
Real-time interaction analysis by surface plasmon resonance on a BIAcore instrument (Jonsson et al., 1991) was used to determine kon and koff constants. Biotinylated peptides 1-17 were bound to commercially available streptavidin-coated microsensor chips (Pharmacia Biosensor), in order to achieve a surface capacity of 100-200 surface plasmon resonance units of calmodulin bound. Different concentrations of calmodulin (5, 10, 20, 50 and 100 nM in the order of FIG. 2) were injected and allowed to associate with the peptides. Regeneration of the surface was achieved by injection of 5 μl TBS+[…] which dissociates the calmodulin-peptide complex.
On the technique in general: SPR reads the build-up and loss of mass on a sensor chip optically.

A further test has as its target calmodulin (Bos taurus, UniProt P62157). The experiment in a line: koff by competition experiments, native PAGE of fluorescein-labelled peptide/calmodulin complexes. Type of test: binding, bovine. Also on record: Complexes between calmodulin from bovine brain (1 μM, Sigma); purchased Sigma; host or cells: bovine brain (tissue-derived). Particulars: for dissociation from calmodulin in competition with excess unlabelled peptide, in words: FIG. 3; for koff: competition with 30-fold excess unlabelled peptide, room temperature, gel buffer, read-out: koff (s^-1)^C. As to the method:
Complexes between calmodulin from bovine brain (1 μM, Sigma) and fluorescein-labelled sMLCK-derived peptides (as described in Table 1 (SEQ ID NOS:2-18)) were prepared in gel buffer (25% gel mix [4 g sucrose+1 mg bromophenol blue in water to give a 10 ml solution]+75% TBSC [50 mM TRIS pH 7.4, […]+50 μM CaCl2)] and run on a 15% native PAGE gel (5 ml 30% acrylamide-bisacrylamide solution+4.5 ml water+0.5 ml 3M Tris, pH 8.8, +1 μl 1M CaCl2 polymerised with 30 μl 25% ammonium persulphate and 9 μl TEMED) using 14.4 g/l glycine+3 g/l Tris-base+0.1 mM CaCl2 as running buffer. Peptides were labelled either with iodoacetamido fluorescein (Molecular Probes) or with iodoacetamido-LC-biotin (Pierce) essentially as previously described by Neri et al., (1995). In these conditions, the fluorescence of the positively-charged labelled peptides can be detected only if they form a stable complex with calmodulin.
In order to obtain an independent experimental confirmation if the BIAcore results, koff constants for peptides 1-17 towards calmodulin were determined by competition experiments. 30 nM fluorescein-labelled peptide/calmodulin complexes in gel buffer were competed at room temperature for different times with 30-fold excess of unlabelled peptide. The resulting mixtures were run on native PAGE gels and imaged by LUANA as described above. The bands in the image obtained were integrated using the LUANA software (Neri et al., 1996) and the corresponding intersities plotted versus time and fitted with a single exponential, from which koff constants were derived. In order to normalise band intensities against pipetting errors, the samples contained 6 nM free fluorescein which ran with the front. The fluorescein bands were integrated and used to normalise the calmodulin/fluorescent peptide complex band intensity. The results of competitions for peptides 1, 2, 3, 6, 9, and 14 are shown in this FIG. 3. Incubation time in minutes is indicated under the lanes.
The volumes of the bands were plotted versus competition time and fitted to a single exponential, from which koff values were derived.
The fastest competitions (peptides 1-4, 9 and 13, SEQ ID NOS:2-5,10, and 14) were over by the time the calmodulin/fluorescent peptide complex entered the gel (approximately 5-10 minutes from pipetting a molar excess of unlabelled peptide; FIG. 3), from which a condition on the off-rate constant koff >1×10^-3 s^-1 was derived. Even for these fast off-rates, complexes can be detected by native polyacrylamide gel electrophoresis because of the well known gel "cage effect" (Fried and Crothers, 1981; Garner and Revzin, 1981).

Test [2] deals with T1, bovine brain calmodulin. The experiment in a line: stopped-flow measurement of kisom of calmodulin-binding peptides. As to conditions: changes in tryptophan fluorescence.
Excerpt: It has been shown by Torok and Trentham (1994) that smooth muscle MLCK-derived peptides bind to calmodulin with a biphasic kinetic according to the scheme: [drawing 1]
in which P is the peptide, C is calmodulin, P-C is the first complex formed on association of P and C, which then undergoes a conformational isomerisation to P-C*.
as §1
kisom constants have been measured by stopped-flow, detecting changes in tryptophan fluorescence for all the peptides except 3 (SEQ ID NO:4), in which the tryptophan is replaced by alanine.

For `CC[C@H](C)[C@H](NC(=O)[C@H](Cc1ccccc1)NC(=O)[C@H](CC(N)=O)NC(=O)[C@H](CCCCN)NC(=O)[C@H](CCCCN)NC(=O)[C@H](C)NC(=O)[C@H](CCCNC(=N)N)NC(=O)[C@H](C)NC(=O)[C@H](C)NC(=O)[C@H](C)NC(=O)[C@@H](N)CS)C(=O)N[C@@H](C)C(=O)N[C@H](C(=O)N[C@@H](CO)C(=O)N[C@@H](C)C(=O)N[C@@H](C)C(=O)N[C@@H](CC(N)=O)C(=O)N[C@@H](CCCNC(=N)N)C(=O)N[C@@H](Cc1ccccc1)C(=O)N[C@@H](CCCCN)C(=O)N[C@@H](CCCCN)C(=O)N[C@H](C(=O)N[C@@H](CO)C(N)=O)[C@@H](C)CC)C(C)C` [Peptide 3] (H-CAAARAKKNFIAVSAANRFKKIS-NH2; N-terminus assumed), on bovine brain calmodulin [1], the “increase in kon with respect to the wild-type peptide 1” value was 4-5 fold; the koff (usually a measure of how fast the partners let go of each other) worked out at 0.005 s⁻¹; the kon (as a rule, the second-order rate constant of association) was 3.2e+06 M⁻¹ s⁻¹. For the same compound, at calmodulin, the “dissociation from calmodulin in competition with excess unlabelled peptide, in words” value was “dissociated from calmodulin in a few minutes” and the koff is not below 0.001 s⁻¹.
With `CC[C@H](C)[C@H](NC(=O)[C@H](Cc1ccccc1)NC(=O)[C@H](CC(N)=O)NC(=O)[C@H](CCCCN)NC(=O)[C@H](CCCCN)NC(=O)[C@H](Cc1c[nH]c2ccccc12)NC(=O)[C@H](CCCNC(=N)N)NC(=O)[C@H](C)NC(=O)[C@H](C)NC(=O)[C@H](C)NC(=O)[C@@H](N)CS)C(=O)N[C@@H](C)C(=O)N[C@H](C(=O)N[C@@H](CO)C(=O)N[C@@H](C)C(=O)N[C@@H](C)C(=O)N[C@@H](CC(N)=O)C(=O)N[C@@H](C)C(=O)N[C@@H](Cc1ccccc1)C(=O)N[C@@H](CCCCN)C(=O)N[C@@H](CCCCN)C(=O)N[C@H](C(=O)N[C@@H](CO)C(N)=O)[C@@H](C)CC)C(C)C` [Peptide 12] (H-CAAARWKKNFIAVSAANAFKKIS-NH2; N-terminus assumed), on bovine brain calmodulin [1], the koff was 0.00041 s⁻¹ and the association rate constant (kon) stood at 1.6e+06 M⁻¹ s⁻¹. For the same compound, the “kisom. (s^-1)^A” value on bovine brain calmodulin [2] is on record as 1.7 (10.4) × 10^-1 s^-1. In addition, on calmodulin, the koff is 0.00083 s⁻¹.
As to `CC[C@H](C)[C@H](NC(=O)[C@H](Cc1ccccc1)NC(=O)[C@H](CC(N)=O)NC(=O)[C@H](CCCCN)NC(=O)[C@H](CCCCN)NC(=O)[C@H](Cc1c[nH]c2ccccc12)NC(=O)[C@H](CCCNC(=N)N)NC(=O)[C@H](C)NC(=O)[C@H](C)NC(=O)[C@H](C)NC(=O)[C@@H](N)CS)C(=O)N[C@@H](C)C(=O)N[C@H](C(=O)N[C@@H](CO)C(=O)N[C@@H](C)C(=O)N[C@@H](C)C(=O)N[C@@H](C)C(=O)N[C@@H](CCCNC(=N)N)C(=O)N[C@@H](Cc1ccccc1)C(=O)N[C@@H](CCCCN)C(=O)N[C@@H](CCCCN)C(=O)N[C@H](C(=O)N[C@@H](CO)C(N)=O)[C@@H](C)CC)C(C)C` [Peptide 11] (H-CAAARWKKNFIAVSAAARFKKIS-NH2; N-terminus assumed), at bovine brain calmodulin [1], the koff turned out to be 0.00035 s⁻¹ and the kon came to 940000 M⁻¹ s⁻¹. The “kisom. (s^-1)^A” value on bovine brain calmodulin [2] is 2.8 (10.6) × 10^-2 s^-1. In addition, the koff on calmodulin turned out to be 0.00049 s⁻¹.
Take `CC[C@H](C)[C@H](NC(=O)[C@H](CCCCN)NC(=O)[C@H](CCCCN)NC(=O)[C@H](Cc1ccccc1)NC(=O)[C@H](CCCNC(=N)N)NC(=O)[C@H](CC(N)=O)NC(=O)[C@H](C)NC(=O)[C@H](C)NC(=O)[C@H](CO)NC(=O)[C@@H](NC(=O)[C@H](C)NC(=O)[C@@H](NC(=O)[C@H](Cc1ccccc1)NC(=O)[C@H](CC(N)=O)NC(=O)[C@H](CCCCN)NC(=O)[C@H](CCCCN)NC(=O)[C@H](Cc1c[nH]c2ccccc12)NC(=O)[C@H](CCCNC(=N)N)NC(=O)[C@H](C)NC(=O)[C@H](C)NC(=O)[C@H](C)NC(=O)[C@@H](N)CS)[C@@H](C)CC)C(C)C)C(=O)N[C@@H](C)C(N)=O` [Peptide 17] (H-CAAARWKKNFIAVSAANRFKKIA-NH2; N-terminus assumed): on bovine brain calmodulin [1], the “improvement of koff with respect to wild type, in words” value is “largest improvements”; the koff stood at 0.00013 s⁻¹; the kon came out at 820000 M⁻¹ s⁻¹. In addition, the “improvement in Kd / affinity for calmodulin over the wild type peptide, in words” value at bovine brain calmodulin [1] (Table 1) is on record as “greatest improvement in Kd”. For the same compound, the “kisom. (s^-1)^A” value on bovine brain calmodulin [2] is reported as 1.3 (10.4) × 10^-1 s^-1. Besides, on calmodulin, the koff turned out to be 7e-05 s⁻¹.
For the compound `CC[C@H](C)[C@H](NC(=O)[C@H](Cc1ccccc1)NC(=O)[C@H](CC(N)=O)NC(=O)[C@H](CCCCN)NC(=O)[C@H](CCCCN)NC(=O)[C@H](Cc1c[nH]c2ccccc12)NC(=O)[C@H](CCCNC(=N)N)NC(=O)[C@H](C)NC(=O)[C@H](C)NC(=O)[C@H](C)NC(=O)[C@@H](N)CS)C(=O)N[C@@H](C)C(=O)N[C@H](C(=O)N[C@@H](CO)C(=O)N[C@@H](C)C(=O)N[C@@H](C)C(=O)N[C@@H](CC(N)=O)C(=O)N[C@@H](CCCNC(=N)N)C(=O)N[C@@H](Cc1ccccc1)C(=O)N[C@@H](CCCCN)C(=O)N[C@@H](CCCCN)C(=O)N[C@@H](C)C(=O)N[C@@H](CO)C(N)=O)C(C)C` [Peptide 16] (H-CAAARWKKNFIAVSAANRFKKAS-NH2; N-terminus assumed), at bovine brain calmodulin [1], the off-rate (koff) was 0.00031 s⁻¹ and the kon is 810000 M⁻¹ s⁻¹. Besides, the “kisom. (s^-1)^A” value at bovine brain calmodulin [2] is recorded as 8.7 (11.5) × 10^-2 s^-1. In addition, the koff on calmodulin was determined as 0.00028 s⁻¹.
`CC[C@H](C)[C@H](NC(=O)[C@H](Cc1ccccc1)NC(=O)[C@H](CC(N)=O)NC(=O)[C@H](CCCCN)NC(=O)[C@H](CCCCN)NC(=O)[C@H](Cc1c[nH]c2ccccc12)NC(=O)[C@H](C)NC(=O)[C@H](C)NC(=O)[C@H](C)NC(=O)[C@H](C)NC(=O)[C@@H](N)CS)C(=O)N[C@@H](C)C(=O)N[C@H](C(=O)N[C@@H](CO)C(=O)N[C@@H](C)C(=O)N[C@@H](C)C(=O)N[C@@H](CC(N)=O)C(=O)N[C@@H](CCCNC(=N)N)C(=O)N[C@@H](Cc1ccccc1)C(=O)N[C@@H](CCCCN)C(=O)N[C@@H](CCCCN)C(=O)N[C@H](C(=O)N[C@@H](CO)C(N)=O)[C@@H](C)CC)C(C)C` [Peptide 2] (H-CAAAAWKKNFIAVSAANRFKKIS-NH2; N-terminus assumed): at bovine brain calmodulin [1], the “increase in kon with respect to the wild-type peptide 1” value is recorded as 4-5 fold, the dissociation rate constant (koff) worked out at 0.0015 s⁻¹ and the kon was found to be 3e+06 M⁻¹ s⁻¹. Also, the “kisom. (s^-1)^A” value on bovine brain calmodulin [2] was 1.2 (10.5) × 10^-1 s^-1. In addition, at calmodulin, the “dissociation from calmodulin in competition with excess unlabelled peptide, in words” value was “dissociated from calmodulin in a few minutes” and the koff was not below 0.001 s⁻¹.
`CC[C@H](C)[C@H](NC(=O)[C@H](C)NC(=O)[C@H](CCCCN)NC(=O)[C@H](Cc1ccccc1)NC(=O)[C@H](CCCNC(=N)N)NC(=O)[C@H](CC(N)=O)NC(=O)[C@H](C)NC(=O)[C@H](C)NC(=O)[C@H](CO)NC(=O)[C@@H](NC(=O)[C@H](C)NC(=O)[C@@H](NC(=O)[C@H](Cc1ccccc1)NC(=O)[C@H](CC(N)=O)NC(=O)[C@H](CCCCN)NC(=O)[C@H](CCCCN)NC(=O)[C@H](Cc1c[nH]c2ccccc12)NC(=O)[C@H](CCCNC(=N)N)NC(=O)[C@H](C)NC(=O)[C@H](C)NC(=O)[C@H](C)NC(=O)[C@@H](N)CS)[C@@H](C)CC)C(C)C)C(=O)N[C@@H](CO)C(N)=O` [Peptide 15] (H-CAAARWKKNFIAVSAANRFKAIS-NH2; N-terminus assumed): the off-rate (koff) was found to be 0.00022 s⁻¹ on bovine brain calmodulin [1] and 0.00021 s⁻¹ at calmodulin. For the same compound, the kon on bovine brain calmodulin [1] was 1.1e+06 M⁻¹ s⁻¹. For the same compound, on bovine brain calmodulin [2], the “kisom. (s^-1)^A” value is listed as 1.2 (10.3) × 10^-1 s^-1.
